The values below come from patent publication US20140329870A1, “COMPOSITIONS COMPRISING ISOSORBIDE MONOESTERS AND ISOTHIAZOLINONES” (CLARIANT INTERNATIONAL LTD., priority 2011, published 2014).

Test [1] concerns bacteria, fungi and yeasts. As to the kind of experiment: Antimicrobial activity, overall statements on the test series. Type of test: cell-based. On the procedure:
(§1) Below, the antimicrobial efficacy of a composition according to the invention consisting of 50% by weight of isorbide caprylate 1 and 50% by weight of a 2% by weight strength solution of methylisothiazolinone in water against bacteria, fungi and yeasts is examined (hereinbelow, the composition is referred to as “composition A”). For the tests with bacteria, composition A was diluted with butyl polyglycol and then, at 50° C., added to liquid CASO agar (casein-peptone agar) buffered to pH 7 (+/−0.2) in various concentrations (hereinbelow referred to as compositions B1, B2, etc.). For the tests with fungi and yeasts, composition A was diluted with butyl polyglycol and then added to liquid Sabouraud 4% dextrose agar buffered to pH 5.6 (+/−0.2) in various concentrations (hereinbelow referred to as compositions PH1, PH2, etc.). The compositions B1, B2, etc. and PH1, PH2 etc. were each poured into Petri dishes and each inoculated with identical amounts of bacteria, fungi and yeasts. The minimum inhibitory concentration (MIC) is the concentration at which inhibition of the growth of the bacteria, fungi and yeasts in the compositions B1, B2, etc. and PH1, PH2, etc. occurs.
(§2) The minimum inhibitory concentrations for the pure substances isosorbide caprylate 1 and methylisothiazolinone were determined analogously.
(§3) Kull et al., Applied Microbiology 1961, 9, 538 using the formula below: […]

A further test deals with Citrobacter freundii. As to the kind of experiment: Minimum inhibitory concentration (MIC) in agar, antimicrobial efficacy. As to conditions: CASO agar pH 7. Type of test: cell-based. On the procedure: as §1, §2
(§4) The values determined for the minimum inhibitory concentrations “MIC mixture”, stated in Table 1 below, are based on the concentrations of composition A.
(§5) The values determined for the minimum inhibitory concentrations “QA” and “QB”, stated in Table 1 below, have already been corrected for the dilution effect of the water and the butyl polyglycol.
as §3
(§6) where • Qa is the minimum inhibitory concentration of isosorbide caprylate 1 in the mixture employed, • QA is the minimum inhibitory concentration of isosorbide caprylate 1, • Qb is the minimum inhibitory concentration of methylisothiazolinone in the mixture employed and • QB is the minimum inhibitory concentration of methylisothiazolinone.
(§7) The values for Qa and Qb are determined from the values for the mixtures (“MIC mixture”) by multiplying the minimum inhibitory concentrations determined for Qa with the factor 0.5 and for Qb with the factor 0.01, because of the proportions of the ingredients—50% by weight of isosorbide caprylate 1 and 50% by weight of a 2% by weight strength solution of methylisothiazolinone in water—in composition A according to the invention examined.
(§8) If an SE value >1 is obtained, an antagonistic effect is present.

The next test deals with Pseudomonas oleovorans. The description is as above. Type of test: cell-based. To be noted: CASO agar pH 7. On the procedure: as §1, §2, §4, §5, §3, §6, §7, §8
The test system of a further test is Penicillium minioluteum. The test is described as above. Type of test: cell-based. To be noted: Sabouraud 4% dextrose agar pH 5.6. On the procedure: as §1, §2, §4, §5, §3, §6, §7, §8
In a further test the test system is Aspergillus brasiliensis. The description is as above. Format: cell-based. As to conditions: Sabouraud 4% dextrose agar pH 5.6. On the procedure: as §1, §2, §4, §5, §3, §6, §7, §8
The next test concerns Pseudomonas aeruginosa. The test is described as above. As to conditions: CASO agar pH 7. Type of test: cell-based. On the procedure:
as §1, §2, §4, §5, §3, §6, §7, §8

The next test has as its system Escherichia coli. The test is described as above. To be noted: CASO agar pH 7. Type of test: cell-based. On the procedure:
as §1, §2, §4, §5, §3, §6, §7, §8

The test system of another test is Enterobacter aerogenes. The test is described as above. Format: cell-based. As to conditions: CASO agar pH 7. On the procedure: as §1, §2, §4, §5, §3, §6, §7, §8
For a further test, the system named is Proteus vulgaris. The test is described as above. To be noted: CASO agar pH 7. Format: cell-based. On the procedure: as §1, §2, §4, §5, §3, §6, §7, §8
Another test has as its system Staphylococcus aureus. The description is as above. Type of test: cell-based. To be noted: CASO agar pH 7. On the procedure:
as §1, §2, §4, §5, §3, §6, §7, §8

A further test concerns Fusarium solani. The description is as above. Type of test: cell-based. As to conditions: Sabouraud 4% dextrose agar pH 5.6. On the procedure: as §1, §2, §4, §5, §3, §6, §7, §8
For a further test, the system named is Candida albicans. The test is described as above. Type of test: cell-based. To be noted: Sabouraud 4% dextrose agar pH 5.6. On the procedure:
as §1, §2, §4, §5, §3, §6, §7, §8

The subject of another test is Aspergillus terreus. The test is described as above. Format: cell-based. As to conditions: Sabouraud 4% dextrose agar pH 5.6. On the procedure: as §1, §2, §4, §5, §3, §6, §7, §8
A further test has as its system Penicillium funicolosium. Described as above. As to conditions: Sabouraud 4% dextrose agar pH 5.6. Type of test: cell-based. On the procedure:
as §1, §2, §4, §5, §3, §6, §7, §8

The subject of another test is Klebsiella pneumoniae. The description is as above. Type of test: cell-based. As to conditions: CASO agar pH 7. On the procedure: as §1, §2, §4, §5, §3, §6, §7, §8
Test [2] has as its system bacteria, fungi and yeasts. As to conditions: general statement, no test data given, cited from earlier work.
[3] abbreviates: in composition A, MIC mixture x 0.01.
Where [4] appears, read: pure substance, corrected for dilution.

Converted amounts (≈) assume the structure as drawn. Read-outs that look alike come from different tables or passages of the source.

Regarding isosorbide monocaprylate, the “antimicrobial activity (in words)” value in [1] (concluded from Tables 1 and 2) was “significant antimicrobial activity”.
Regarding `O[C@@H]1CO[C@H]2[C@@H]1OC[C@@H]2O` [isosorbide], the “antimicrobial activity (in words)” value in test [1] (as shown by the results of Table 2) is given as “neither isosorbide nor isosorbide dicaprylate are antimicrobially active”. Moreover, the MIC is 10000 µg/mL (≈ 68.4 mM) in the test on Citrobacter freundii (Citrobacter freundii, Table 2); 10000 µg/mL (≈ 68.4 mM) against Pseudomonas oleovorans (Ectopseudomonas oleovorans, Table 2); 10000 µg/mL (≈ 68.4 mM) in the test with Penicillium minioluteum (Talaromyces minioluteus, Table 2); 10000 µg/mL (≈ 68.4 mM) in the test with Aspergillus brasiliensis (Aspergillus brasiliensis, Table 2); 10000 µg/mL (≈ 68.4 mM) against Pseudomonas aeruginosa (Pseudomonas aeruginosa, Table 2); 10000 µg/mL (≈ 68.4 mM) against Escherichia coli (Escherichia coli, Table 2). In addition, the MIC in the test on Enterobacter aerogenes (Klebsiella aerogenes, Table 2) turned out to be 10000 µg/mL (≈ 68.4 mM); in the test on Proteus vulgaris (Proteus vulgaris, Table 2), 10000 µg/mL (≈ 68.4 mM); in the test on Staphylococcus aureus (Staphylococcus aureus, Table 2), 10000 µg/mL (≈ 68.4 mM); against Fusarium solani (Fusarium solani, Table 2), 10000 µg/mL (≈ 68.4 mM); against Candida albicans (Candida albicans, Table 2), 10000 µg/mL (≈ 68.4 mM); in the test on Aspergillus terreus (Aspergillus terreus, Table 2) it was 10000 µg/mL (≈ 68.4 mM). Further, the MIC with Penicillium funicolosium (Penicillium, Table 2) worked out at 10000 µg/mL (≈ 68.4 mM); in the test with Klebsiella pneumoniae (Klebsiella pneumoniae, Table 2), 10000 µg/mL (≈ 68.4 mM).
For `CCCCCCCC(=O)O` [caprylic acid, octanoic acid], the “antimicrobial activity (in words)” value in [2] (at a pH of 6 or above) is given as “no antimicrobial activity”. Moreover, the “antimicrobial efficacy (in words)” value in test [2] is on record as “antimicrobially effective”.
In the case of `Cn1sccc1=O` [methylisothiazolinone], the “Qb, calc. (MIC of methylisothiazolinone in the mixture employed)” value with Citrobacter freundii (setting [3]) is listed as 10 ppm; with Pseudomonas oleovorans (setting [3]) it was 5 ppm; in the test on Penicillium minioluteum (setting [3]), 7.5 ppm; in the test on Aspergillus brasiliensis (setting [3]), 10 ppm; with Pseudomonas aeruginosa (setting [3]), 20 ppm; in the test with Escherichia coli (setting [3]) it was 10 ppm. Moreover, the “Qb, calc. (MIC of methylisothiazolinone in the mixture employed)” value was 15 ppm in the test on Enterobacter aerogenes (setting [3]); 5 ppm with Proteus vulgaris (setting [3]); 25 ppm with Staphylococcus aureus (setting [3]); 7.5 ppm in the test on Fusarium solani (setting [3]); 10 ppm with Candida albicans (setting [3]); 7.5 ppm in the test on Aspergillus terreus (setting [3]). For the same compound, the “Qb, calc. (MIC of methylisothiazolinone in the mixture employed)” value in the test with Penicillium funicolosium (setting [3]) was 7.5 ppm; in the test on Klebsiella pneumoniae (setting [3]) it was 15 ppm. The “QB, meas. (MIC of methylisothiazolinone)” value with Citrobacter freundii (setting [4]) came out at 15 ppm; with Pseudomonas oleovorans (setting [4]) it was 5 ppm; with Penicillium minioluteum (setting [4]), 100 ppm; in the test on Aspergillus brasiliensis (setting [4]) it was 100 ppm; in the test on Pseudomonas aeruginosa (setting [4]), 40 ppm; with Escherichia coli (setting [4]), 10 ppm. Also, the “QB, meas. (MIC of methylisothiazolinone)” value is listed as 15 ppm with Enterobacter aerogenes (setting [4]); 5 ppm with Proteus vulgaris (setting [4]); 40 ppm in the test with Staphylococcus aureus (setting [4]); 100 ppm in the test on Fusarium solani (setting [4]); 100 ppm with Candida albicans (setting [4]); 100 ppm in the test with Aspergillus terreus (setting [4]). Further, the “QB, meas. (MIC of methylisothiazolinone)” value in the test on Penicillium funicolosium (setting [4]) is listed as 100 ppm; with Klebsiella pneumoniae (setting [4]), 15 ppm.
